Patent publication US5721208A, “Glycopeptides a process for their preparation and their use” (Hoechst Aktiengesellschaft, priority 1991, dated 1998)

Assays:
[1] = system: Staph. aureus SG 511; experiment: Minimum bacteriostatic inhibitory concentration, Agar dilution method; type: cell-based
[2] = system: Staph. aureus 285; experiment: as above; type: cell-based
[3] = system: Staph. aureus 503; experiment: as above; type: cell-based
[4] = system: Strept. pyogenes 308 A; experiment: as above; type: cell-based
[5] = system: Strept. pyogenes 77 A; experiment: as above; type: cell-based
[6] = system: Strept. faecium D; experiment: as above; type: cell-based
[7] = system: Escherichia coli DC 2; experiment: as above; type: cell-based
[8] = system: Bact. fragilis 312; experiment: as above; type: cell-based
[9] = system: Bact. fragilis 960; experiment: as above; type: cell-based
[10] = system: Bact. fragilis 1313; experiment: as above; type: cell-based
[11] = system: Bact. vulgatus 1446; experiment: as above; type: cell-based
[12] = system: Peptostrept. anaerob. 932; experiment: as above; type: cell-based
[13] = system: Propioni acnes 6916; experiment: as above; type: cell-based
[14] = system: Propioni acnes 6922; experiment: as above; type: cell-based
[15] = system: Clostridium tetani ATCC 1940650; conditions: Agar dilution method
[16] = system: Clostridium perfringens 194; conditions: Agar dilution method

## CNC(CC(C)C)C(=O)NC1C(=O)NC(CC(N)=O)C(=O)NC2C(=O)NC3C(=O)NC(C(=O)NC(C(=O)O)c4cc(O)cc(O)c4-c4cc3ccc4O)C(OC3CC(C)(N)C(=O)C(C)O3)c3ccc(c(Cl)c3)Oc3cc2cc(c3O)Oc2ccc(cc2Cl)C1O (centres unmarked) [Desglucobalhimycin, desglucobalhimycin]
[1]
  Minimum bacteriostatic inhibitory concentration: 0.2 micrograms per milliliter
[2]
  Minimum bacteriostatic inhibitory concentration: 0.2 micrograms per milliliter
[3]
  Minimum bacteriostatic inhibitory concentration: 0.1 micrograms per milliliter
[4]
  Minimum bacteriostatic inhibitory concentration: 0.1 micrograms per milliliter
[5]
  Minimum bacteriostatic inhibitory concentration: 0.1 micrograms per milliliter
[6]
  Minimum bacteriostatic inhibitory concentration: 0.2 micrograms per milliliter
[7]
  Minimum bacteriostatic inhibitory concentration: > 100 micrograms per milliliter
[8]
  Minimum bacteriostatic inhibitory concentration: 25 micrograms per milliliter
[9]
  Minimum bacteriostatic inhibitory concentration: 25 micrograms per milliliter
[10]
  Minimum bacteriostatic inhibitory concentration: 25 micrograms per milliliter
[11]
  Minimum bacteriostatic inhibitory concentration: > 100 micrograms per milliliter
[12]
  Minimum bacteriostatic inhibitory concentration: 0.4 micrograms per milliliter
[13]
  Minimum bacteriostatic inhibitory concentration: 0.2 micrograms per milliliter
[14]
  Minimum bacteriostatic inhibitory concentration: 0.2 micrograms per milliliter
[15]
  Minimum bacteriostatic inhibitory concentration: 0.4 micrograms per milliliter
[16]
  Minimum bacteriostatic inhibitory concentration: 0.1 micrograms per milliliter

## CC(C)CC(N)C(=O)NC1C(=O)NC(CC(N)=O)C(=O)NC2C(=O)NC3C(=O)NC(C(=O)NC(C(=O)O)c4cc(O)cc(O)c4-c4cc3ccc4O)C(OC3CC(C)(N)C(=O)C(C)O3)c3ccc(c(Cl)c3)Oc3cc2cc(c3OC2OC(CO)C(O)C(O)C2O)Oc2ccc(cc2Cl)C1O (centres unmarked) [Desmethylbalhimycin, desmethylbalhimycin]
[1]
  Minimum bacteriostatic inhibitory concentration: 0.1 micrograms per milliliter
[2]
  Minimum bacteriostatic inhibitory concentration: 0.1 micrograms per milliliter
[3]
  Minimum bacteriostatic inhibitory concentration: 0.05 micrograms per milliliter
[4]
  Minimum bacteriostatic inhibitory concentration: 0.05 micrograms per milliliter
[5]
  Minimum bacteriostatic inhibitory concentration: 0.05 micrograms per milliliter
[6]
  Minimum bacteriostatic inhibitory concentration: 0.2 micrograms per milliliter
[7]
  Minimum bacteriostatic inhibitory concentration: 10 micrograms per milliliter
[8]
  Minimum bacteriostatic inhibitory concentration: 100 micrograms per milliliter
[9]
  Minimum bacteriostatic inhibitory concentration: 25 micrograms per milliliter
[10]
  Minimum bacteriostatic inhibitory concentration: 50 micrograms per milliliter
[11]
  Minimum bacteriostatic inhibitory concentration: 50 micrograms per milliliter
[12]
  Minimum bacteriostatic inhibitory concentration: 25 micrograms per milliliter
[13]
  Minimum bacteriostatic inhibitory concentration: 0.8 micrograms per milliliter
[14]
  Minimum bacteriostatic inhibitory concentration: 0.4 micrograms per milliliter
[15]
  Minimum bacteriostatic inhibitory concentration: 50 micrograms per milliliter
[16]
  Minimum bacteriostatic inhibitory concentration: 0.2 micrograms per milliliter

## CC1OC(OC2c3ccc(c(Cl)c3)Oc3cc4cc(c3OC3OC(CO)C(O)C(O)C3O)Oc3ccc(cc3Cl)C(O)C(N)C(=O)NC(CC(N)=O)C(=O)NC4C(=O)NC3C(=O)NC2C(=O)NC(C(=O)O)c2cc(O)cc(O)c2-c2cc3ccc2O)CC(C)(N)C1=O (centres unmarked) [Desmethylleucylbalhimycin, desmethylleucylbalhimycin]
[1]
  Minimum bacteriostatic inhibitory concentration: 3 micrograms per milliliter
[2]
  Minimum bacteriostatic inhibitory concentration: 6 micrograms per milliliter
[3]
  Minimum bacteriostatic inhibitory concentration: 6 micrograms per milliliter
[4]
  Minimum bacteriostatic inhibitory concentration: 12.5 micrograms per milliliter
[5]
  Minimum bacteriostatic inhibitory concentration: 3 micrograms per milliliter
[6]
  Minimum bacteriostatic inhibitory concentration: 6 micrograms per milliliter
[7]
  Minimum bacteriostatic inhibitory concentration: > 100 micrograms per milliliter
[8]
  Minimum bacteriostatic inhibitory concentration: 50 micrograms per milliliter
[9]
  Minimum bacteriostatic inhibitory concentration: 50 micrograms per milliliter
[10]
  Minimum bacteriostatic inhibitory concentration: 100 micrograms per milliliter
[11]
  Minimum bacteriostatic inhibitory concentration: 100 micrograms per milliliter
[12]
  Minimum bacteriostatic inhibitory concentration: 50 micrograms per milliliter
[13]
  Minimum bacteriostatic inhibitory concentration: 6 micrograms per milliliter
[14]
  Minimum bacteriostatic inhibitory concentration: 6 micrograms per milliliter
[15]
  Minimum bacteriostatic inhibitory concentration: 50 micrograms per milliliter
[16]
  Minimum bacteriostatic inhibitory concentration: 6 micrograms per milliliter

## CC(C)C[C@H](C(=O)N[C@H]1C(=O)NC(CC(N)=O)C(=O)N[C@H]2C(=O)N[C@H]3C(=O)N[C@H](C(=O)N[C@@H](C(=O)O)c4cc(O)cc(O)c4-c4cc3ccc4O)[C@H](O[C@H]3C[C@](C)(N)C(=O)[C@H](C)O3)c3ccc(c(Cl)c3)Oc3cc2cc(c3O[C@@H]2O[C@H](CO)[C@@H](O)[C@H](O)[C@H]2O)Oc2ccc(cc2Cl)[C@H]1O)N(C)C (some centres unmarked) [Methylbalhimycin, methylbalhimycin]
[1]
  Minimum bacteriostatic inhibitory concentration: 0.4 micrograms per milliliter
[2]
  Minimum bacteriostatic inhibitory concentration: 0.4 micrograms per milliliter
[3]
  Minimum bacteriostatic inhibitory concentration: 0.4 micrograms per milliliter
[4]
  Minimum bacteriostatic inhibitory concentration: 0.4 micrograms per milliliter
[5]
  Minimum bacteriostatic inhibitory concentration: 0.4 micrograms per milliliter
[6]
  Minimum bacteriostatic inhibitory concentration: 0.8 micrograms per milliliter
[7]
  Minimum bacteriostatic inhibitory concentration: 25 micrograms per milliliter
[8]
  Minimum bacteriostatic inhibitory concentration: 100 micrograms per milliliter
[9]
  Minimum bacteriostatic inhibitory concentration: 100 micrograms per milliliter
[10]
  Minimum bacteriostatic inhibitory concentration: 50 micrograms per milliliter
[11]
  Minimum bacteriostatic inhibitory concentration: > 100 micrograms per milliliter
[12]
  Minimum bacteriostatic inhibitory concentration: 0.8 micrograms per milliliter
[13]
  Minimum bacteriostatic inhibitory concentration: 0.4 micrograms per milliliter
[14]
  Minimum bacteriostatic inhibitory concentration: 0.4 micrograms per milliliter
[15]
  Minimum bacteriostatic inhibitory concentration: 3.1 micrograms per milliliter
[16]
  Minimum bacteriostatic inhibitory concentration: 1.5 micrograms per milliliter

## CNC(CC(C)C)C(=O)NC1C(=O)NC(CC(N)=O)C(=O)NC2C(=O)NC3C(=O)NC(C(=O)NC(C(=O)O)c4cc(O)cc(O)c4-c4cc3ccc4O)C(OC3CC4(C)NC(=O)NC4(O)C(C)O3)c3ccc(c(Cl)c3)Oc3cc2cc(c3OC2OC(CO)C(O)C(O)C2O)Oc2ccc(cc2Cl)C1O (centres unmarked) [Ureidobalhimycin, ureidobalhimycin]
[1]
  Minimum bacteriostatic inhibitory concentration: 0.8 micrograms per milliliter
[2]
  Minimum bacteriostatic inhibitory concentration: 1.5 micrograms per milliliter
[3]
  Minimum bacteriostatic inhibitory concentration: 1.5 micrograms per milliliter
[4]
  Minimum bacteriostatic inhibitory concentration: 0.8 micrograms per milliliter
[5]
  Minimum bacteriostatic inhibitory concentration: 0.8 micrograms per milliliter
[6]
  Minimum bacteriostatic inhibitory concentration: 1.5 micrograms per milliliter
[7]
  Minimum bacteriostatic inhibitory concentration: > 100 micrograms per milliliter
[8]
  Minimum bacteriostatic inhibitory concentration: 25 micrograms per milliliter
[9]
  Minimum bacteriostatic inhibitory concentration: 25 micrograms per milliliter
[10]
  Minimum bacteriostatic inhibitory concentration: 25 micrograms per milliliter
[11]
  Minimum bacteriostatic inhibitory concentration: 50 micrograms per milliliter
[12]
  Minimum bacteriostatic inhibitory concentration: 6.2 micrograms per milliliter
[13]
  Minimum bacteriostatic inhibitory concentration: 0.8 micrograms per milliliter
[14]
  Minimum bacteriostatic inhibitory concentration: 1.5 micrograms per milliliter
[15]
  Minimum bacteriostatic inhibitory concentration: 12.5 micrograms per milliliter
[16]
  Minimum bacteriostatic inhibitory concentration: 0.4 micrograms per milliliter
